Experimental data taken from patent US5175180A, “N-substituted N-(alpha-triazolyl-toluyl)pyrrole compounds and use for treatment of circulatory disorders” (G. D. Searle & Co., priority 1990, dated 1992).
Where two headings read alike, the source gives them in different places.

Tests used:
[1] = biological target: smooth muscle angiotensin II receptor; assay: Assay A: Angiotensin II Binding Activity (displacement of 125I-angiotensin II, rat uterine membrane preparation); details: 50% displacement of specifically bound 125I-AII; rat uterine membranes, 25° C., 60 min, pH 7.5
Description: Compounds of the invention were tested for ability to bind to the smooth muscle angiotensin II receptor using a rat uterine membrane preparation. […] Other chemicals were obtained from Sigma Chemical Co. This assay was carried out according to the method of Douglas et al [Endocrinology, 106, 120-124 (1980)]. Rat uterine membranes were prepared from fresh tissue. All procedures were carried out at 4° C. Uteri were stripped of fat and homogenized in phosphate-buffered saline at pH 7.4 containing 5 mM EDTA. The homogenate was centrifuged at 1500×g for 20 min., and the supernatant was recentrifuged at 100,000×g for 60 min. The pellet was resuspended in buffer consisting of 2 mM EDTA and 50 mM Tris-HCl (pH 7.5) to a final protein concentration of 4 mg/ml. […] The reaction was initiated by the addition of membrane protein and the mixture was incubated at 25° C. for 60 min. The incubation was terminated with ice-cold 50 mM Tris-HCl (pH 7.5) and the mixture was filtered to separate membrane-bound labelled peptide from the free ligand. The incubation tube and filter were washed with ice-cold buffer. Filters were assayed for radioactivity in a Micromedic gamma counter. […] Specific binding was calculated as total binding minus nonspecific binding. […] Binding data were analyzed by a nonlinear least-squares curve fitting program.

[2] = biological target: T1, rabbit aortic rings (angiotensin II response) (Oryctolagus cuniculus, UniProt P34976); assay: Assay B: In Vitro Vascular Smooth Muscle Response for AII (aortic rings); type: cell-based, rabbit (male New Zealand white)
T1 construct: The thoracic aorta was removed, cleaned of adherent fat and connective tissue; from tissue; host or cells: thoracic aorta rings without endothelium, male New Zealand white rabbit
T1 sequence (P34976 1-359): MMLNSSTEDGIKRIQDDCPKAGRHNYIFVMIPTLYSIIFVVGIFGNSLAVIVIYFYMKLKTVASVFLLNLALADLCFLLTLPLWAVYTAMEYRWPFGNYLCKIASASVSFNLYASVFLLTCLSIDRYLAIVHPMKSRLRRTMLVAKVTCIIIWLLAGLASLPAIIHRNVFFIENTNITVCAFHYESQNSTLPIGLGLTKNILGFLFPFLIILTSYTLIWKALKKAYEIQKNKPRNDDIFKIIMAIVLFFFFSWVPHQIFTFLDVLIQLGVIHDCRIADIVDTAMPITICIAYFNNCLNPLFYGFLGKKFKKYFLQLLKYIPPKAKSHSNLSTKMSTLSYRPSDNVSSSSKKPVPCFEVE
Description: The compounds of the invention were tested for antagonist activity in rabbit aortic rings. Male New Zealand white rabbits (2-2.5 kg) were sacrificed using an overdose of pentobarbital and exsanguinated via the carotid arteries. The thoracic aorta was removed, cleaned of adherent fat and connective tissue and then cut into 3-mm ring segments. The endothelium was removed from the rings by gently sliding a rolled-up piece of filter paper into the vessel lumen. The rings were then mounted in a water-jacketed tissue bath, maintained at 37° C., between moveable and fixed ends of a stainless steel wire with the moveable end attached to an FTO3 Grass transducer coupled to a Model 7D Grass Polygraph for recording isometric force responses. The bath was filled with 20 ml of oxygenated (95% oxygen/5% carbon dioxide) Krebs solution of the following composition (mM): 130 NaCl, 15 NaHCO3, […], 1.2 NaH2 PO4, 1.2 MgSO4, 2.5 CaCl2, and 11.4 glucose. The preparations were equilibrated for one hour before approximately one gram of passive tension was placed on the rings. Angiotensin II concentration-response curves were then recorded (3×10^-10 to 1×10^-5 M). […] The effectiveness of the test compound was expressed in terms of pA2 values and were calculated according to H. O. Schild [Br. J. Pharmacol. Chemother., 2, 189-206 (1947)]. […] Each test antagonist was evaluated in aorta rings from two rabbits.

angiotensin II = details: result in words, prior art; cited from earlier work
[3] = test system: angiotensin II pressor response; assay: Assay C: In Vivo Intraduodenal Pressor Assay Response for AII Antagonists; parameters: species or system rat (male Sprague-Dawley); details: 30 mg/kg i.d., average of two rats
Description: Angiotensin II injections were then given 5, 10, 20, 30, 45, 60, 75, 90, and 120 minutes after administration of the test compound and response of arterial pressure was monitored. […] Duration of action of a test compound was defined as the time from peak percent inhibition to 50% of peak.

[4] = result in words, prior art; cited from earlier work

SMILES | IC50 [1] [nM] | angiotensin II antagonist activity (angiotensin II) | further results
CCCCc1nc(CCCC)n(Cc2ccc(-n3c(Br)ccc3-c3nnn[nH]3)cc2)n1 [Example 3, 5-[1-[4-[(3,5-di-n-butyl-1H-1,2,4-triazol-1-yl)methyl]phenyl]-5-bromo-1H-pyrrol-2-yl]-1H-tetrazole] | 110 |  | Kb ([2]; rabbit aortic rings, 37° C., antagonist 5 min before AII challenge, two rabbits, Schild, read-out: pA2 (converted)): 9.55 nM
CNCC(=O)N[C@@H](CCCN=C(N)N)C(=O)N[C@H](C(=O)N[C@@H](Cc1ccc(O)cc1)C(=O)N[C@H](C(=O)N[C@@H](Cc1cnc[nH]1)C(=O)N1CCC[C@H]1C(=O)N[C@@H](C)C(=O)O)C(C)C)C(C)C [Saralasin] |  | significant residual antagonist activity | 
CCCCc1nc(CCCC)n(Cc2ccc(-n3c(Cl)cc(Cl)c3-c3nnn[nH]3)cc2)n1 [Example 5, 5-[1-[4-[(3,5-dibutyl-1H-1,2,4-triazol-1-yl)methyl]phenyl]-3,5-dichloro-1H-pyrrol-2-yl]-1H-tetrazole] | 52 |  | Kb [2]: 20 nM; Inhibition ([3]; percent inhibition of AII pressor response, AII 30 ng/kg i.v., ganglion-blocked anesthetized rats): 85%; Duration ([3]; time from peak percent inhibition to 50% of peak): 75 min
CCCCc1nc(Cl)c(CC(=O)O)n1Cc1ccccc1[N+](=O)[O-] [(2-butyl-4-chloro-1-(2-nitrobenzyl)imidazole-5-acetic acid] |  | specific competitive angiotensin II antagonist activity | 
Cc1ccc(C(c2ccc(-n3cccc3)cc2)n2cncn2)cc1 (stereo not shown) [1-[(4-methylphenyl)[4-(1H-pyrrol-1-yl)phenyl]methyl]-1H-1,2,4-triazole] |  |  | antibacterial and antifungal properties [4]: antibacterial and antifungal properties
CCCCc1nc(Cl)c(CC(=O)O)n1Cc1ccccc1Cl [2-n-butyl-4-chloro-1-(2-chlorobenzyl)imidazole-5-acetic acid] |  | specific competitive angiotensin II antagonist activity | 
